According to patent US9856262B2, “Analogues of 4H-pyrazolo[1,5-a] benzimidazole compound as PARP inhibitors” (HUBEI BIO-PHARMACEUTICAL INDUSTRIAL TECHNOLOGICAL INSTITUTE …, priority 2014, dated 2018):

What was measured:
PARP-1 = molecular target: T1, PARP-1 (Homo sapiens, UniProt P09874); assay: PARP enzymatic assay (HT Universal Colorimetric PARP1 Assay Kit); type: biochemical; conditions: read-out: PARP-1 enzymatic inhibition IC50
T1 construct: purchased
Description: PARP Enzymatic Assay (Following the Manual of HT Universal Colorimetric PARP1 Assay Kit).
Histone proteins were coated on a 96-well plate and incubated overnight at 4° C. After be washed 3 times with 200 ul PBST solution, the plate was blocked with a blocking solution and incubated for 30 min at room temperature, and then washed with PBST solution 3 times. A compound to be tested was treated and added to the plate. Thereafter, 20 μl of diluted PARP1 (1 nM) or 20 μl of PARP2 (3 nM) solution was added into the reaction system and incubated for 1 or 2 hours. 50 ul of streptavidin-HRP mixture (1:50) was added into the plate and incubated for 30 min at room temperature. The plate was then washed with three times with PBST buffer. 100 μl of (HRP) (Chemiluminescent substrate A and substrate B (1:1)) was added into the plate, and the plate was immediately read on a microplate reader (Envision, PerkinElmer).

HCC1937 cells = assay: Cellular PARylation assay; type: cell-based; conditions: Homo sapiens; HCC1937 cells, compound 30 min then 1 mM H2O2 10 min; read-out: cellular PARylation EC50
Description: Cellular PARylation Assay
HCC1937 cells were planted into 96 well plates at 4×10^4 cells/well and incubated at 37° C. in an incubator overnight. After being treated with a test compound for 30 min, cells were then treated with 1 mM H2O2 for 10 min. The cells were washed with 200 ul pre-chilled PBS twice and fixed with 100 ul pre-chilled methanol/acetone (7:3) on ice for 30 min. After being air-dried, the plates were blocked using PBS-Tween blocking solution (0.05%) with dissolved 5% nonfat dry milk for 30 min at room temperature. The cells were incubated with anti-PAR antibody 10H (1:100) at room temperature for 1 hour followed by washing with PBS-Tween20 for 3 times; and then added into a blocking solution including goat anti-mouse fluorescein isothiocyanate (FITC)-coupled secondary antibody and 1 μg/mL DAPI to incubate away from light at room temperature for 1 hour. After being washed with PBS-Tween20 for 3 times, the plate was analyzed with a fluorescence microplate counter (Flexstation III, Molecular Device).

T1 sequence (P09874 whole entry): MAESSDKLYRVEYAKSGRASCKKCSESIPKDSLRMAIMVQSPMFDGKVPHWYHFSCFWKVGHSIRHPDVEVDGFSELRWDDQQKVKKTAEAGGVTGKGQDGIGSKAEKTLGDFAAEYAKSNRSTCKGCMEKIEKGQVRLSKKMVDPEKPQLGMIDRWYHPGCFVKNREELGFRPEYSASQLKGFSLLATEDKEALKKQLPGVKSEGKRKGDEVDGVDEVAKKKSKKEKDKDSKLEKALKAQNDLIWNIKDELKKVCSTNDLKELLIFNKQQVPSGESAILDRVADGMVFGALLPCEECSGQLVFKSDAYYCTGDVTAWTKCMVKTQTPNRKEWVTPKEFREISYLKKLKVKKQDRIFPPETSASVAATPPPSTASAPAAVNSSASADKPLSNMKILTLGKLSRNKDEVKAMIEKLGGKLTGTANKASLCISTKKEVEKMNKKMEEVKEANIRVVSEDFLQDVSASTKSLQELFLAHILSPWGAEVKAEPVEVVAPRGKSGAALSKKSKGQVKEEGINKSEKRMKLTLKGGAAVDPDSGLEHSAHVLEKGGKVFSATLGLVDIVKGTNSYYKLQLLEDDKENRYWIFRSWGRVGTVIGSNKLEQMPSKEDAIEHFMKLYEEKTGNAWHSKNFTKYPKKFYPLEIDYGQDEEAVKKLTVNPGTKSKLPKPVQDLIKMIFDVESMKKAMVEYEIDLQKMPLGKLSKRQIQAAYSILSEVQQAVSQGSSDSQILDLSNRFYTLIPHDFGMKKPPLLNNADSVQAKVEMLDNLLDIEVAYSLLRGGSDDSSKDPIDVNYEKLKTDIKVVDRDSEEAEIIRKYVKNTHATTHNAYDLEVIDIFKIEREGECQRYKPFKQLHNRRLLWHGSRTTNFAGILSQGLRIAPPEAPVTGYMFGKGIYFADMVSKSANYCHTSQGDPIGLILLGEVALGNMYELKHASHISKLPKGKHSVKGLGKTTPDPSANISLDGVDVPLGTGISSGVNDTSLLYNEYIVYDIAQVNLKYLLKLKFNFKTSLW

Row | SMILES | IC50 (PARP-1) [µM] | EC50 (HCC1937 cells) [µM]
1 | CC1(c2cnn3c2[nH]c2cc(F)cc(C(N)=O)c23)CCN(CC2(O)CC2)CC1 [Example 70, 6-fluoro-3-(1-((1-hydroxycyclopropyl)methyl)-4-methylpiperidin-4-yl)-4H-benzo[4,5]imidazo[1,2-b]pyrazole-8-carboxamide] | 0.001 to 0.1 | 0.001 to 0.1
2 | CC1(CN2CCC(C)(c3cnn4c3[nH]c3cc(F)cc(C(N)=O)c34)CC2)COC1 [Example 71] | 0.001 to 0.1 | 0.001 to 0.1
3 | COCCCN1CCC(C)(c2cnn3c2[nH]c2cc(F)cc(C(N)=O)c23)CC1 [Example 72, 6-fluoro-3-(1-(3-methoxypropyl)-4-methylpiperidin-4-yl)-4H-benzo[4,5]imidazo[1,2-b]pyrazole-8-carboxamide] | 0.001 to 0.1 | 0.001 to 0.1
4 | CC1(c2cnn3c2[nH]c2cc(F)cc(C(N)=O)c23)CCN(CC2(S(C)(=O)=O)CC2)CC1 [Example 73, 6-fluoro-3-(4-methyl-1-((1-(methylsulfonyl)cyclopropyl)methyl)piperidin-4-yl)-4H-benzo[4,5]imidazo[1,2-b]pyrazole-8-carboxamide] | 0.001 to 0.1 | 0.001 to 0.1
5 | CC1(c2cnn3c2[nH]c2cc(F)cc(C(N)=O)c23)CCN(Cc2nccs2)CC1 [Example 74, 6-fluoro-3-(4-methyl-1-(thiazol-2-ylmethyl)piperidin-4-yl)-4H-benzo[4,5]imidazo[1,2-b]pyrazole-8-carboxamide] | 0.001 to 0.1 | 0.101 to 1
6 | CC1(c2cnn3c2[nH]c2cc(F)cc(C(N)=O)c23)CCN(S(C)(=O)=O)CC1 [Example 75, 6-fluoro-3-(4-methyl-1-(methylsulfonyl)piperidin-4-yl)-4H-benzo[4,5]imidazo[1,2-b]pyrazole-8-carboxamide] | 0.001 to 0.1 | 0.101 to 1
7 | CC1(c2cnn3c2[nH]c2cc(F)cc(C(N)=O)c23)CCN(C2CC(F)C2)CC1 (stereo not shown) [Example 76, 6-fluoro-3-(1-(3-fluorocyclobutyl)-4-methylpiperidin-4-yl)-4H-benzo[4,5]imidazo[1,2-b]pyrazole-8-carboxamide] | 0.001 to 0.1 | 0.001 to 0.1
8 | CC1(c2cnn3c2[nH]c2cc(F)cc(C(N)=O)c23)CCN(Cc2cccs2)CC1 [Example 77, 6-fluoro-3-(4-methyl-1-(thiophen-2-ylmethyl)piperidin-4-yl)-4H-benzo[4,5]imidazo[1,2-b]pyrazole-8-carboxamide] | 0.001 to 0.1 | 0.001 to 0.1
9 | CCN1CCC(CN2CCC(C)(c3cnn4c3[nH]c3cc(F)cc(C(N)=O)c34)CC2)CC1 [Example 78, 3-(1-((1-ethylpiperidin-4-yl)methyl)-4-methylpiperidin-4-yl)-6-fluoro-4H-benzo[4,5]imidazo[1,2-b]pyrazole-8-carboxamide] | 0.001 to 0.1 | 0.001 to 0.1
10 | CN1CC(CN2CCC(C)(c3cnn4c3[nH]c3cc(F)cc(C(N)=O)c34)CC2)C1 [Example 79, 6-fluoro-3-(4-methyl-1-((1-methylazetidin-3-yl)methyl)piperidin-4-yl)-4H-benzo[4,5]imidazo[1,2-b]pyrazole-8-carboxamide] | 0.001 to 0.1 | 0.001 to 0.1
11 | CCOC(=O)C1CC1CN1CCC(C)(c2cnn3c2[nH]c2cc(F)cc(C(N)=O)c23)CC1 (stereo not shown) [Example 80, ethyl 2-((4-(8-carbamoyl-6-fluoro-4H-benzo[4,5]imidazo[1,2-b]pyrazol-3-yl)-4-methylpiperidin-1-yl)methyl)cyclopropanecarboxylate] | 0.001 to 0.1 | 0.001 to 0.1
12 | CN(C)C(=O)C1CC1CN1CCC(C)(c2cnn3c2[nH]c2cc(F)cc(C(N)=O)c23)CC1 (stereo not shown) [Example 81] | 0.001 to 0.1 | 0.001 to 0.1
13 | CC(C)CN1CCC(C)(c2cnn3c2[nH]c2cc(F)cc(C(N)=O)c23)CC1 [Example 82, 6-fluoro-3-(1-isobutyl-4-methylpiperidin-4-yl)-4H-benzo[4,5]imidazo[1,2-b]pyrazole-8-carboxamide] | 0.001 to 0.1 | 0.001 to 0.1
14 | Cc1ncsc1CN1CCC(C)(c2cnn3c2[nH]c2cc(F)cc(C(N)=O)c23)CC1 [Example 83, 6-fluoro-3-(4-methyl-1-((4-methylthiazol-5-yl)methyl)piperidin-4-yl)-4H-benzo[4,5]imidazo[1,2-b]pyrazole-8-carboxamide] | 0.001 to 0.1 | 0.001 to 0.1
15 | Cn1ccnc1CN1CCC(C)(c2cnn3c2[nH]c2cc(F)cc(C(N)=O)c23)CC1 [Example 84, 6-fluoro-3-(4-methyl-1-((1-methyl-1H-imidazol-2-yl)methyl)piperidin-4-yl)-4H-benzo[4,5]imidazo[1,2-b]pyrazole-8-carboxamide] | 0.001 to 0.1 | 0.001 to 0.1
16 | Cc1ncc(CN2CCC(C)(c3cnn4c3[nH]c3cc(F)cc(C(N)=O)c34)CC2)n1C [Example 85, 3-(1-((1,2-dimethyl-1H-imidazol-5-yl)methyl)-4-methylpiperidin-4-yl)-6-fluoro-4H-benzo[4,5]imidazo[1,2-b]pyrazole-8-carboxamide] | 0.001 to 0.1 | 0.001 to 0.1
17 | CCN1CCC(N2CCC(C)(c3cnn4c3[nH]c3cc(F)cc(C(N)=O)c34)CC2)CC1 [Example 86, 3-(1′-ethyl-4-methyl-[1,4′-bipiperidin]-4-yl)-6-fluoro-4H-benzo[4,5]imidazo[1,2-b]pyrazole-8-carboxamide] | 0.001 to 0.1 | 0.001 to 0.1
18 | CC1(c2cnn3c2[nH]c2cc(F)cc(C(N)=O)c23)CCN(Cc2ccc(=O)[nH]n2)CC1 [Example 87, 6-fluoro-3-(4-methyl-1-((6-oxo-1,6-dihydropyridazin-3-yl)methyl)piperidin-4-yl)-4H-benzo[4,5]imidazo[1,2-b]pyrazole-8-carboxamide] | 0.001 to 0.1 | 0.101 to 1
19 | CC1(c2cnn3c2[nH]c2cc(F)cc(C(N)=O)c23)CCN(CCC#N)CC1 [Example 88, 3-(1-(2-cyanoethyl)-4-methylpiperidin-4-yl)-6-fluoro-4H-benzo[4,5]imidazo[1,2-b]pyrazole-8-carboxamide] | 0.001 to 0.1 | 0.001 to 0.1
20 | CCN1CCC(C)(c2cnn3c2[nH]c2cc(Cl)cc(C(N)=O)c23)CC1 [Example 89, 6-chloro-3-(1-ethyl-4-methylpiperidin-4-yl)-4H-benzo[4,5]imidazo[1,2-b]pyrazole-8-carboxamide] | 0.001 to 0.1 | 0.101 to 1
21 | CCN1CCC(C)(c2cnn3c2[nH]c2cc(F)cc(C(N)=O)c23)C1 (stereo not shown) [Example 90, 3-(1-ethyl-3-methylpyrrolidin-3-yl)-6-fluoro-4H-benzo[4,5]imidazo[1,2-b]pyrazole-8-carboxamide] | 0.001 to 0.1 | 0.001 to 0.1
22 | CN1CCC(C)(c2cnn3c2[nH]c2cc(F)cc(C(N)=O)c23)C1 (stereo not shown) [Example 91, 3-(1,3-dimethylpyrrolidin-3-yl)-6-fluoro-4H-benzo[4,5]imidazo[1,2-b]pyrazole-8-carboxamide] | 0.001 to 0.1 | 0.001 to 0.1
23 | CC(C)N1CCC(C)(c2cnn3c2[nH]c2cc(F)cc(C(N)=O)c23)C1 (stereo not shown) [Example 92, 6-fluoro-3-(1-isopropyl-3-methylpyrrolidin-3-yl)-4H-benzo[4,5]imidazo[1,2-b]pyrazole-8-carboxamide] | 0.001 to 0.1 | 0.001 to 0.1
24 | CC1(c2cnn3c2[nH]c2cc(F)cc(C(N)=O)c23)CCN(CC2CC2)C1 (stereo not shown) [Example 93, 3-(1-(cyclopropylmethyl)-3-methylpyrrolidin-3-yl)-6-fluoro-4H-benzo[4,5]imidazo[1,2-b]pyrazole-8-carboxamide] | 0.001 to 0.1 | 0.001 to 0.1
25 | CC1(c2cnn3c2[nH]c2cc(F)cc(C(N)=O)c23)CCN(C2COC2)C1 (stereo not shown) [Example 94, 6-fluoro-3-(3-methyl-1-(oxetan-3-yl)pyrrolidin-3-yl)-4H-benzo[4,5]imidazo[1,2-b]pyrazole-8-carboxamide] | 0.001 to 0.1 | 0.101 to 1
26 | CC1(c2cnn3c2[nH]c2cc(F)cc(C(N)=O)c23)CCN(CCF)C1 (stereo not shown) [Example 95, 6-fluoro-3-(1-(2-fluoroethyl)-3-methylpyrrolidin-3-yl)-4H-benzo[4,5]imidazo[1,2-b]pyrazole-8-carboxamide] | 0.001 to 0.1 | 0.001 to 0.1
27 | CC1(c2cnn3c2[nH]c2cc(F)cc(C(N)=O)c23)CCN(CC2CC2(F)F)C1 (stereo not shown) [Example 96, 3-(1-((2,2-difluorocyclopropyl)methyl)-3-methylpyrrolidin-3-yl)-6-fluoro-4H-benzo[4,5]imidazo[1,2-b]pyrazole-8-carboxamide] | 0.001 to 0.1 | 0.001 to 0.1
28 | CC1(c2cnn3c2[nH]c2cc(F)cc(C(N)=O)c23)CCN(CC(F)(F)F)C1 (stereo not shown) [Example 97, 6-fluoro-3-(3-methyl-1-(2,2,2-trifluoroethyl)pyrrolidin-3-yl)-4H-benzo[4,5]imidazo[1,2-b]pyrazole-8-carboxamide] | 0.001 to 0.1 | 0.101 to 1
29 | CC1(c2cnn3c2[nH]c2cc(F)cc(C(N)=O)c23)CCN(CCS(C)(=O)=O)C1 (stereo not shown) [Example 98, 6-fluoro-3-(3-methyl-1-(2-(methylsulfonyl)ethyl)pyrrolidin-3-yl)-4H-benzo[4,5]imidazo[1,2-b]pyrazole-8-carboxamide] | 0.001 to 0.1 | 0.101 to 1
